Assay results published in patent US10703764B2, “Benzopiperazine compositions as BET bromodomain inhibitors” (FORMA Therapeutics, Inc., priority 2013, dated 2020).

Key:
BRD4 BD1 = molecular target: T1, BRD4 BD1 (Homo sapiens, UniProt O60885); assay: AlphaScreen binding assay, BRD4 Bromodomain 1
T1 construct: made in house
Method in brief: (§1)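 An AlphaScreen competition format was used with His-BRD4 BD1 or BD2 and biotin-H4 K5/8/12/16-acetyl peptide, each at matched final levels of 50 nM (BD1) or 100 nM (BD2). Incubation in HEPES/NaCl buffer with 0.1% BSA and 0.01% Triton X-100 ran ≥1 h before IC50 determination.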

MV4-11 cells = assay: Oncology cell growth assay (3-day proliferation, CellTiter-Glo); assay type: cell-based; details: Homo sapiens, MV4-11, 72 h, AML cell line MV4-11, 72 hours, compounds grouped by IC50 range, read-out: MV4-11 IC50 (inhibition of proliferation, gIC50)
Method in brief: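 Luminescence from CellTiter-Glo served as the growth read-out after MV4-11 cells (3000/well) were cultured with compound for 72 hours. Final concentrations spanned 10 to 0.0045 μM in 3-fold steps. gIC50 values were derived by four-parameter logistic fitting relative to DMSO and cell-free controls.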

BRD4 BD2 = molecular target: T2, BRD4 BD2 (Homo sapiens, UniProt O60885); assay: AlphaScreen binding assay, BRD4 Bromodomain 2
T2 construct: made in house
Method in brief: as §1

| Compound | IC50 (BRD4 BD1) | IC50 (MV4-11 cells) | IC50 (BRD4 BD2) |
| --- | --- | --- | --- |
| CC(=O)N1c2cc(N)c(-c3cnn(C4CC4)c3)cc2N(C(=O)OC(C)C)C[C@@H]1C [Example I-206, Isopropyl (S)-4-acetyl-6-amino-7-(1-cyclopropyl-1H-pyrazol-4-yl)-3-methyl-3,4-dihydroquinoxaline-1(2H)-carboxylate] | 100 to 1000 nM | 100 to 500 nM | < 50 nM |
| CC(=O)N1c2cc(Br)c(-c3cnn(C4CC4)c3)cc2N(C(=O)OC(C)C)C[C@@H]1C [Example I-209, Isopropyl (S)-4-acetyl-6-bromo-7-(1-cyclopropyl-1H-pyrazol-4-yl)-3-methyl-3,4-dihydroquinoxaline-1(2H)-carboxylate] | 1000 to 10000 nM | > 500 nM | > 500 nM |
| CC(=O)N1c2cc(C#N)c(-c3cnn(C4CC4)c3)cc2N(C(=O)OC(C)C)C[C@@H]1C [Example I-211, Isopropyl (S)-4-acetyl-6-cyano-7-(1-cyclopropyl-1H-pyrazol-4-yl)-3-methyl-3,4-dihydroquinoxaline-1(2H)-carboxylate] | 100 to 1000 nM | > 500 nM | > 500 nM |
| CC(=O)N1c2cc(C(N)=O)c(-c3cnn(C4CC4)c3)cc2N(C(=O)OC(C)C)C[C@@H]1C [Example I-212, Isopropyl (S)-4-acetyl-6-carbamoyl-7-(1-cyclopropyl-1H-pyrazol-4-yl)-3-methyl-3,4-dihydroquinoxaline-1(2H)-carboxylate] | 100 to 1000 nM | 100 to 500 nM | 50 to 500 nM |
| CC(=O)Nc1cc2c(cc1-c1cnn(C3CC3)c1)N(C(=O)OC(C)C)C[C@H](C)N2C(C)=O [Example I-214, Isopropyl (S)-6-acetamido-4-acetyl-7-(1-cyclopropyl-1H-pyrazol-4-yl)-3-methyl-3,4-dihydroquinoxaline-1(2H)-carboxylate] | 100 to 1000 nM | 100 to 500 nM | 50 to 500 nM |
| CNC(=O)Nc1cc2c(cc1-c1cnn(C3CC3)c1)N(C(=O)OC(C)C)C[C@H](C)N2C(C)=O [Example I-215, Isopropyl (S)-4-acetyl-7-(1-cyclopropyl-1H-pyrazol-4-yl)-3-methyl-6-(3-methylureido)-3,4-dihydroquinoxaline-1(2H)-carboxylate] | 100 to 1000 nM | 100 to 500 nM | 50 to 500 nM |
| CC(=O)N1c2cc(N)c(-c3ccc(S(C)(=O)=O)cc3)cc2N(C(=O)OC(C)C)C[C@@H]1C [Example I-216, Isopropyl (S)-4-acetyl-6-amino-3-methyl-7-(4-(methylsulfonyl)phenyl)-3,4-dihydroquinoxaline-1 (2H)-carboxylate] | 1000 to 10000 nM | > 500 nM | > 500 nM |
| CC(=O)N1c2cc(C#N)c(-c3ccc(S(C)(=O)=O)cc3)cc2N(C(=O)OC(C)C)C[C@@H]1C [Example I-219, Isopropyl (S)-4-acetyl-6-cyano-3-methyl-7-(4-(methylsulfonyl)phenyl)-3,4-dihydroquinoxaline-1(2H)-carboxylate] | 1000 to 10000 nM | > 500 nM | > 500 nM |
| CCOC(=O)N1C[C@H](C)N(C(C)=O)c2ccc(-c3ccc(S(C)(=O)=O)cc3)cc21 [Example I-224] | 100 to 1000 nM | > 500 nM | 50 to 500 nM |
| CC(=O)N1c2ccc(-c3ccc(S(C)(=O)=O)cc3)cc2N(C(=O)Oc2ccccc2Cl)C[C@@H]1C [Example I-225] | 100 to 1000 nM | < 100 nM | < 50 nM |
| CC(=O)N1c2ccc(-c3ccc(S(C)(=O)=O)cc3)cc2N(C(=O)Oc2ccc(C)cc2)C[C@@H]1C [Example I-232] | 100 to 1000 nM | < 100 nM | 50 to 500 nM |
| CC(=O)N1c2ccc(-c3ccc(S(C)(=O)=O)cc3)cc2N(C(=O)Oc2ccc(F)cc2)C[C@@H]1C [Example I-234] | 100 to 1000 nM | < 100 nM | < 50 nM |
| CC(=O)N1c2ccc(-c3ccc(S(C)(=O)=O)cc3)cc2N(C(=O)OC2CCCC2)C[C@@H]1C [Example I-236] | 1000 to 10000 nM | > 500 nM | > 500 nM |
| CC(=O)N1c2ccc(-c3ccc(S(C)(=O)=O)cc3)cc2N(C(=O)OC2CCCCC2)C[C@@H]1C [Example I-238] | 100 to 1000 nM | 100 to 500 nM | < 50 nM |
| CC(=O)N1c2ccc(-c3ccc(S(C)(=O)=O)cc3)cc2N(C(=O)Oc2ccc3ccccc3c2)C[C@@H]1C [Example I-239] | 1000 to 10000 nM | 100 to 500 nM | < 50 nM |
| CC(=O)N1c2ccc(-c3ccc(S(C)(=O)=O)cc3)cc2N(C(=O)C2CCC2)C[C@@H]1C [Example I-245] | 1000 to 10000 nM | > 500 nM | 50 to 500 nM |
| CC(=O)N1c2ccc(-c3ccc(S(C)(=O)=O)cc3)cc2N(C(=O)OCC(C)C)C[C@@H]1C [Example I-250] | 100 to 1000 nM | 100 to 500 nM | 50 to 500 nM |
| CC(=O)N1c2ccc(-c3ccc(S(C)(=O)=O)cc3)cc2N(C(=O)Oc2cccc3ccccc23)C[C@@H]1C [Example I-251] | 1000 to 10000 nM | > 500 nM | 50 to 500 nM |
| CC(=O)N1c2ccc(-c3cnn(C4CC4)c3)cc2N(C(=O)Oc2ccccc2)C[C@@H]1C [Example I-256] | 100 to 1000 nM | < 100 nM | < 50 nM |
| CC(=O)N1c2ccc(-c3cnn(C4CC4)c3)cc2N(C(=O)Oc2ccccc2Cl)C[C@@H]1C [Example I-257] | 100 to 1000 nM | 100 to 500 nM | < 50 nM |
| COc1ccccc1OC(=O)N1C[C@H](C)N(C(C)=O)c2ccc(-c3cnn(C4CC4)c3)cc21 [Example I-258] | 100 to 1000 nM | < 100 nM | < 50 nM |
| CC(=O)N1c2ccc(-c3cnn(C4CC4)c3)cc2N(C(=O)Oc2cccc(C(F)(F)F)c2)C[C@@H]1C [Example I-259] | 1000 to 10000 nM | 100 to 500 nM | < 50 nM |
| CC(=O)N1c2ccc(-c3cnn(C4CC4)c3)cc2N(C(=O)Oc2ccc(Cl)cc2)C[C@@H]1C [Example I-260] | < 100 nM | 100 to 500 nM | < 50 nM |

The next lines start with the values.

| IC50 (BRD4 BD1) | IC50 (MV4-11 cells) | IC50 (BRD4 BD2) | Compound |
| --- | --- | --- | --- |
| 100 to 1000 nM | > 500 nM | 50 to 500 nM | CC(=O)N1c2cc(F)c(-c3cnn(C4CC4)c3)cc2N(C(=O)OC(C)C)C[C@@H]1C [Example I-207, Isopropyl (S)-4-acetyl-7-(1-cyclopropyl-1H-pyrazol-4-yl)-6-fluoro-3-methyl-3,4-dihydroquinoxaline-1(2H)-carboxylate] |
| 1000 to 10000 nM | > 500 nM | > 500 nM | CC(=O)N1c2cc(Cl)c(-c3cnn(C4CC4)c3)cc2N(C(=O)OC(C)C)C[C@@H]1C [Example I-208, Isopropyl (S)-4-acetyl-6-chloro-7-(1-cyclopropyl-1H-pyrazol-4-yl)-3-methyl-3,4-dihydroquinoxaline-1 (2H)-carboxylate] |
| 1000 to 10000 nM | > 500 nM | > 500 nM | COc1cc2c(cc1-c1cnn(C3CC3)c1)N(C(=O)OC(C)C)C[C@H](C)N2C(C)=O [Example I-210, Isopropyl (S)-4-acetyl-7-(1-cyclopropyl-1H-pyrazol-4-yl)-6-methoxy-3-methyl-3,4-dihydroquinoxaline-1(2H)-carboxylate] |
| > 10000 nM | > 500 nM | > 500 nM | CC(=O)N1c2cc(NS(C)(=O)=O)c(-c3cnn(C4CC4)c3)cc2N(C(=O)OC(C)C)C[C@@H]1C [Example I-213, Isopropyl (S)-4-acetyl-7-(1-cyclopropyl-1H-pyrazol-4-yl)-3-methyl-6-(methylsulfonamido)-3,4-dihydroquinoxaline-1(2H)-carboxylate] |
| 1000 to 10000 nM | > 500 nM | > 500 nM | CC(=O)N1c2cc(Br)c(-c3ccc(S(C)(=O)=O)cc3)cc2N(C(=O)OC(C)C)C[C@@H]1C [Example I-217, Isopropyl (S)-4-acetyl-6-bromo-3-methyl-7-(4-(methylsulfonyl)phenyl)-3,4-dihydroquinoxaline-1(2H)-carboxylate] |
| 1000 to 10000 nM | > 500 nM | > 500 nM | CC(=O)N1c2cc(Cl)c(-c3ccc(S(C)(=O)=O)cc3)cc2N(C(=O)OC(C)C)C[C@@H]1C [Example I-218, Isopropyl (S)-4-acetyl-6-chloro-3-methyl-7-(4-(methylsulfonyl)phenyl)-3,4-dihydroquinoxaline-1(2H)-carboxylate] |
| 100 to 1000 nM | < 100 nM | < 50 nM | CC(=O)N1c2ccc(-c3ccc(S(C)(=O)=O)cc3)cc2N(C(=O)Oc2ccccc2)C[C@@H]1C [Example I-223] |
| 100 to 1000 nM | < 100 nM | < 50 nM | COc1ccccc1OC(=O)N1C[C@H](C)N(C(C)=O)c2ccc(-c3ccc(S(C)(=O)=O)cc3)cc21 [Example I-227] |
| 100 to 1000 nM | < 100 nM | < 50 nM | COC(=O)c1ccc(OC(=O)N2C[C@H](C)N(C(C)=O)c3ccc(-c4ccc(S(C)(=O)=O)cc4)cc32)cc1 [Example I-229] |
| 100 to 1000 nM | 100 to 500 nM | 50 to 500 nM | CCCCOC(=O)N1C[C@H](C)N(C(C)=O)c2ccc(-c3ccc(S(C)(=O)=O)cc3)cc21 [Example I-231] |
| 100 to 1000 nM | < 100 nM | < 50 nM | COc1ccc(OC(=O)N2C[C@H](C)N(C(C)=O)c3ccc(-c4ccc(S(C)(=O)=O)cc4)cc32)cc1 [Example I-233] |
| 1000 to 10000 nM | 100 to 500 nM | < 50 nM | CC(=O)N1c2ccc(-c3ccc(S(C)(=O)=O)cc3)cc2N(C(=O)Oc2cccc(C(F)(F)F)c2)C[C@@H]1C [Example I-237] |
| 100 to 1000 nM | 100 to 500 nM | 50 to 500 nM | CCCOC(=O)N1C[C@H](C)N(C(C)=O)c2ccc(-c3ccc(S(C)(=O)=O)cc3)cc21 [Example I-252] |
